Data as given in patent US9790215B2 (FLATLEY DISCOVERY LAB, LLC, priority 2013, dated 2017).

Target: T1, human ΔF508-CFTR (Homo sapiens, UniProt P13569, DEL508-508)
T1 construct: expressed in transfected cells
Experiment: CFTR-YFP High Throughput Assay (YFP halide flux in FRT cells)
Assay type: cell-based
Settings: FRT cells expressing human ΔF508-CFTR and YFP; for EC50: forskolin stimulated
Description: Assays for Detecting and Measuring the Effect of Compounds on dF508-CFTR Channels CFRT-YFP High Throughput Assay:
The following protocol is designed to selectively screen small molecule compounds for F508del CFTR corrector activities in the HTS YFP flux assay. In this protocol, the cells are incubated with testing compounds for 24 hours, washed with PBS, stimulated with forskolin and a standard potentiator, and read on a 384-well HTS plate reader, such as the Hamamatsu FDDD-6000.
(§1) YFP fluorescence intensity is acquired at high speed before and after iodide buffer is injected to the assay cells. Iodide enters the cells via active CFTR channels in the plasma membrane, and quenches the YFP fluorescence. The rate of fluorescence quenching is proportionally related to the total CFTR activities in the cell membrane. dF508-CFTR corrector accelerates YFP quenching by increasing the number of CFTR molecules in the testing cell plasma membrane.
This method was initially developed for bench top plate readers (Galietta et al., 2001), and was adapted to the HTS format (Sui et al. Assay Drug Dev. Technol. 2010).
Fisher Rat Thyroid (FRT) cells stably expressing both human AF508-CFTR and a halide-sensitive yellow fluorescent protein (YFP—H148Q/1152L 25, 22) (Galietta et al., Am. J. Physiol Cell Physiol 281(5), C1734, 2001) were cultured on plastic surface in Coon's modified Ham's F12 medium supplemented with FBS 10%, L-glutamine 2 mM, penicillin 100 U/mL, and streptomycin 100 μg/mL. G418 (0.75-1.0 mg/mL) and zeocin (3.2 ug/mL) were used for selection of FRT cells expressing ΔF508-CFTR and YFP. For primary screening, FRT cells were plated into 384-well black wall, transparent bottom microtiter plates (Costar; Corning Inc.) at a cell density of 20,000-40,000 per well. Test compound was applied to the cells at varying concentrations ranging from […] in either a 2-fold or 3-fold dilution series. Cells were incubated in a cell culture incubator at 37° C. with 5% CO2 for 24-26 h. Assay plates were washed with DPBS media (Thermo, cat# SH30028.02) to remove unbound cells and compound. Stimulation media (25 μL) containing 20 μM Forskolin & 30 μM P3 [6-(Ethyl-phenyl-sulfonyl)-4-oxo-1,4-dihydro-quinoline-3-carboxylic acid 2-methoxy-benzylamide] in Hams F-12 coon's modified media was added to the plate wells and incubated at room temperature for 60-120 min. 25 μL of HEPES-PBS-I buffer (10 mM HEPES, 1 mM MgCl2, 3 mM KCl, 1 mM CaCl2, 150 mM NaI) was then added and fluorescence quench curves (Excitation 500 nm/Emission 540 nm; exposure 136 ms) were immediately recorded on an FDSS-6000 plate reader (Hamamatsu). Quench rates were derived from least squares fitting of the data as described by Sui et al., (2010).
The following protocol is designed to selectively screen small molecule compounds for F508del CFTR potentiator activities in the HTS YFP flux assay. In this protocol, the cells are incubated at 27 C for 24 hours with homogeneously boosted dF508-CFTR expression in the cell membrane by the low temperature, washed with PBS, stimulated with forskolin, and read on a 384-well HTS plate reader, such as the Hamamatsu FDDD-6000.
as §1, with “dF508del-CFTR potentiators accelerate” for “dF508-CFTR corrector accelerates”, “increasing” for “increasing the number of”, “activities” for “molecules”
Fisher Rat Thyroid (FRT) cells stably expressing both human ΔF508-CFTR and a halide-sensitive yellow fluorescent protein (YFP-H148Q/I152L 25, 22) (Galietta et al., Am. J. Physiol Cell Physiol 281(5), C1734, 2001) were cultured on plastic surface in Coon's modified Ham's F12 medium supplemented with FBS 10%, L-glutamine 2 mM, penicillin 100 U/mL, and streptomycin 100 μg/mL. […]

T1 sequence (P13569 with tags, fused parts or gaps DEL508-508): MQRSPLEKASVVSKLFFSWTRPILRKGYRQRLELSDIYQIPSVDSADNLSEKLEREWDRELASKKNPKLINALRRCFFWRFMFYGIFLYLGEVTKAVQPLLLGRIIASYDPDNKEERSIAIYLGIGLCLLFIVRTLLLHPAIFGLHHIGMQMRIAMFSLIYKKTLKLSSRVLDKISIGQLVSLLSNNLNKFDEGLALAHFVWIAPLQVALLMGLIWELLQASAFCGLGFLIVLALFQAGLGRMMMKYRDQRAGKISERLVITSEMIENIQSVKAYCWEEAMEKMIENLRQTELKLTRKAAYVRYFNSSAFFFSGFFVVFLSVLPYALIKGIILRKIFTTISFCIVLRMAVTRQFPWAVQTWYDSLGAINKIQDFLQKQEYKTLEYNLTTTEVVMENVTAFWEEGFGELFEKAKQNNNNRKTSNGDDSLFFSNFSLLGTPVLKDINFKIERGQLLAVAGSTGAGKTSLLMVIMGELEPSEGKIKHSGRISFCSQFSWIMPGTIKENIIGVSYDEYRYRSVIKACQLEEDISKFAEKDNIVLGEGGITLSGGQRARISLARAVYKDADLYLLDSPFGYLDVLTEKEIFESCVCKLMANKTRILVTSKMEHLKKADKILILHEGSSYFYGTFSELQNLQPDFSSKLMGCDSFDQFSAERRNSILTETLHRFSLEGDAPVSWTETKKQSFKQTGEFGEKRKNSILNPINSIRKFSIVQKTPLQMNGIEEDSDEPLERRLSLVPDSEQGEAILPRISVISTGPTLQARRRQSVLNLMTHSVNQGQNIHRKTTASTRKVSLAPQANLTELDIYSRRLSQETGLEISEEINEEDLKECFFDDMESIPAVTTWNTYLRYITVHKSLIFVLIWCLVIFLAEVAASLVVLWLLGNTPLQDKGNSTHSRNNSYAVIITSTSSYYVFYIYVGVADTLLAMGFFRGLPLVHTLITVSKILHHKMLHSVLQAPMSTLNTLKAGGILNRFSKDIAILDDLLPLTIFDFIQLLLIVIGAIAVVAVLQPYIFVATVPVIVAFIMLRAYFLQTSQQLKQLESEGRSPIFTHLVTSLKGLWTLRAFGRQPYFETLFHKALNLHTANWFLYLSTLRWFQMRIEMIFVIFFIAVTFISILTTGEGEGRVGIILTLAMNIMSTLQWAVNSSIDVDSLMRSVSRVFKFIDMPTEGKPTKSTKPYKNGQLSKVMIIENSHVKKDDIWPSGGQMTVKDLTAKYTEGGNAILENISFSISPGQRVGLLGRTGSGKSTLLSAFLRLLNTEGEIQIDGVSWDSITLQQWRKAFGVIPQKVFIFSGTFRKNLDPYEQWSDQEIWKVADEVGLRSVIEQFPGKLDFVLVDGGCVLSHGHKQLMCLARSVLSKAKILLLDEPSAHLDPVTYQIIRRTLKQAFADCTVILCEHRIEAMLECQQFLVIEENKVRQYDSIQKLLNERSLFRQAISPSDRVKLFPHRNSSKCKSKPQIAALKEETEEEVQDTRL

% Efficacy (Emax normalized to the positive control) | EC50 [µM] | Molecule
++ (a range of 80%-30%) | > 20 | 2-(4-(3-aminophenyl)-1-oxophthalazin-2(1H)-yl)-N-ethyl-N-(4-ethylphenyl)acetamide [Example 7]
+++ (EMAX > 80%) | < 10 | 2-(4-(3-chlorophenyl)-1-oxophthalazin-2(1H)-yl)-N-(2,2-difluorobenzo[d][1,3]dioxol-5-yl)-N-ethylacetamide [Example 21]
++ (a range of 80%-30%) | > 20 | 2-(4-(3-cyanophenyl)-1-oxophthalazin-2(1H)-yl)-N-(2,2-difluorobenzo[d][1,3]dioxol-5-yl)-N-ethylacetamide [Example 20]
+ (a range of 30%-10%) | > 20 | 3-(3-(2-(ethyl(4-ethylphenyl)amino)-2-oxoethyl)-4-oxo-3,4-dihydrophthalazin-1-yl)benzamide [Example 10]
+++ (EMAX > 80%) | 10 to 20 | 4-(3-(2-((2,2-difluorobenzo[d][1,3]dioxol-5-yl)(ethyl)amino)-2-oxoethyl)-4-oxo-3,4-dihydro-phthalazin-1-yl)benzamide [Example 18]
++ (a range of 80%-30%) | 10 to 20 | 4-(3-(2-(ethyl(4-ethylphenyl)amino)-2-oxoethyl)-4-oxo-3,4-dihydrophthalazin-1-yl)benzamide [Example 11]
 | 10 to 20 | CCc1ccc(N(CC)C(=O)Cn2nc(-c3ccccc3)c3ccccc3c2=O)cc1 [Example 1, N-ethyl-N-(4-ethylphenyl)-2-(1-oxo-4-phenylphthalazin-2(1H)-yl)acetamide]
 | > 20 | CCc1ccc(N(CC)C(=O)Cn2nc(-c3cccnc3)c3ccccc3c2=O)cc1 [Example 3, N-ethyl-N-(4-ethylphenyl)-2-(1-oxo-4-(pyridin-3-yl)phthalazin-2(1H)-yl)acetamide]
 | > 20 | CCc1ccc(N(CC)C(=O)Cn2nc(-c3ccncc3)c3ccccc3c2=O)cc1 [Example 4, N-ethyl-N-(4-ethylphenyl)-2-(1-oxo-4-(pyridin-4-yl)phthalazin-2(1H)-yl)acetamide]
 | < 10 | CCc1ccc(N(CC)C(=O)Cn2nc(-c3cccc4cnccc34)c3ccccc3c2=O)cc1 [Example 6, N-ethyl-N-(4-ethylphenyl)-2-(4-(isoquinolin-5-yl)-1-oxophthalazin-2(1H)-yl)acetamide]
 | < 10 | CCc1ccc(N(CC)C(=O)Cn2nc(Cc3cccnc3)c3ccccc3c2=O)cc1 [Example 25, N-ethyl-N-(4-ethylphenyl)-2-(1-oxo-4-(pyridin-3-ylmethyl)phthalazin-2(1H)-yl)acetamide]
 | < 10 | CCN(C(=O)Cn1nc(Cc2cccnc2)c2ccccc2c1=O)c1ccc2c(c1)OC(F)(F)O2 [Example 26, N-(2,2-difluorobenzo[d][1,3]dioxol-5-yl)-N-ethyl-2-(1-oxo-4-(pyridin-3-ylmethyl)phthalazin-2(1H)-yl)acetamide]
 | < 10 | CCc1ccc(N(CC)C(=O)Cn2nc(Cc3cccnc3)c3c(C)cccc3c2=O)cc1 [Example 31, N-ethyl-N-(4-ethylphenyl)-2-(5-methyl-1-oxo-4-(pyridin-3-ylmethyl)phthalazin-2(1H)-yl)acetamide]

Second part, the molecule before the results:

Molecule | % Efficacy (Emax normalized to the positive control) | EC50 [µM]
2-(4-(3-cyanophenyl)-1-oxophthalazin-2(1H)-yl)-N-ethyl-N-(4-ethylphenyl)acetamide [Example 16] | ++ (a range of 80%-30%) | < 10
2-(4-(benzo[d][1,3]dioxol-4-yl)-1-oxophthalazin-2(1H)-yl)-N-ethyl-N-(4-ethylphenyl)acetamide [Example 9] | + (a range of 30%-10%) | < 10
4-(3-(2-((2,2-difluorobenzo[d][1,3]dioxol-5-yl)(ethyl)amino)-2-oxoethyl)-4-oxo-3,4-dihydrophthalazin-1-yl)benzoic acid [Example 19] | +++ (EMAX > 80%) | 10 to 20
4-(3-(2-(ethyl(4-ethylphenyl)amino)-2-oxoethyl)-4-oxo-3,4-dihydrophthalazin-1-yl)benzoic acid [Example 13] | ++ (a range of 80%-30%) | 10 to 20
CCc1ccc(N(CC)C(=O)Cn2nc(-c3ccc(O)cc3)c3ccccc3c2=O)cc1 [Example 2, N-ethyl-N-(4-ethylphenyl)-2-(4-(4-hydroxyphenyl)-1-oxophthalazin-2(1H)-yl)acetamide] |  | < 10
CCc1ccc(N(CC)C(=O)Cn2nc(-c3cccc4ncccc34)c3ccccc3c2=O)cc1 [Example 5, N-ethyl-N-(4-ethylphenyl)-2-(1-oxo-4-(quinolin-5-yl)phthalazin-2(1H)-yl)acetamide] |  | 10 to 20
CCN(C(=O)Cn1nc(-c2cccnc2)c2ccccc2c1=O)c1ccc2c(c1)OC(F)(F)O2 [Example 24] |  | > 20
COc1ccc(N(C)C(=O)Cn2nc(Cc3cccnc3)c3ccccc3c2=O)cc1 [Example 27, N-(4-methoxyphenyl)-N-methyl-2-(1-oxo-4-(pyridin-3-ylmethyl)phthalazin-2(1H)-yl)acetamide] |  | < 10
CCc1ccc(N(CC)C(=O)Cn2nc(Cc3cccnc3)c3ccc(C)cc3c2=O)cc1 [Example 28, N-ethyl-N-(4-ethylphenyl)-2-(7-methyl-1-oxo-4-(pyridin-3-ylmethyl)phthalazin-2(1H)-yl)acetamide] |  | < 10
CCc1ccc(N(CC)C(=O)Cn2nc(Cc3cccnc3)c3cc(C)ccc3c2=O)cc1 [Example 29, N-ethyl-N-(4-ethylphenyl)-2-(6-methyl-1-oxo-4-(pyridin-3-ylmethyl)phthalazin-2(1H)-yl)acetamide] |  | < 10
CCc1ccc(N(CC)C(=O)Cn2nc(Cc3cccnc3)c3cccc(C)c3c2=O)cc1 [Example 30, N-ethyl-N-(4-ethylphenyl)-2-(8-methyl-1-oxo-4-(pyridin-3-ylmethyl)phthalazin-2(1H)-yl)acetamide] |  | < 10
CCc1ccc(N(CC)C(=O)Cn2nc(Cc3cccnc3)c3cc(OC)c(OC)cc3c2=O)cc1 [Example 32, 2-(6,7-dimethoxy-1-oxo-4-(pyridin-3-ylmethyl)phthalazin-2(1H)-yl)-N-ethyl-N-(4-ethylphenyl)acetamide] |  | < 10
CCc1ccc(N(CC)C(=O)Cn2nc(Cc3cccnc3)c3ccc(C(C)(C)C)cc3c2=O)cc1 [Example 33, 2-(7-(tert-butyl)-1-oxo-4-(pyridin-3-ylmethyl)phthalazin-2(1H)-yl)-N-ethyl-N-(4-ethylphenyl)acetamide] |  | < 10
CCc1ccc(N(CC)C(=O)Cn2nc(Cc3cccnc3)c3cc(C(C)(C)C)ccc3c2=O)cc1 [Example 34, 2-(6-(tert-butyl)-1-oxo-4-(pyridin-3-ylmethyl)phthalazin-2(1H)-yl)-N-ethyl-N-(4-ethylphenyl)acetamide] |  | < 10
CCc1ccc(N(CC)C(=O)Cn2nc(Cc3cccnc3)c3ccc(OC)cc3c2=O)cc1 [Example 35, N-ethyl-N-(4-ethylphenyl)-2-(7-methoxy-1-oxo-4-(pyridin-3-ylmethyl)phthalazin-2(1H)-yl)acetamide] |  | < 10
